Test results reported in patent US8846762B2, “Benzopyran and benzoxepin PI3K inhibitor compounds and methods of use” (Genentech, Inc., priority 2008, dated 2014).

Legend:
[1] = Body weight change over the course of treatment in the xenograft study, as an indicator of safety; format: in vivo, Taconic nude mice; details: 50 and 100 mg/kg, orally daily for 21 days
pAkt (phospho-Akt) = experiment: phospho AKT induction assay; format: cell-based; details: in each study (Example 284); cells treated with an EC80 of the compound
Method: In a 6-well tissue culture plate cells were seeded at 5×10^5 cells per well overnight. […] Determination of protein concentration was performed using the Pierce BCA Protein Assay Kit (Rockford, Ill.). Levels of pAkt (Ser^473) and total Akt were assessed using bead kits from Biosource (Carlsbad, Calif.) and the Luminex Bio-Plex system (Bio-Rad, Hercules, Calif.).

## CNC(=O)c1ccc2c(c1)OCCc1cc(C(=O)N(C)c3ccc(C(=O)N(C)C)cc3Cl)sc1-2 [Compound 223, N2-(2-chloro-4-(dimethylcarbamoyl)phenyl)-N2,N8-dimethyl-4,5-dihydrobenzo[b]thieno[2,3-d]oxepine-2,8-dicarboxamide]
[1]
  body weights compared with the group administered Vehicle: did not significantly differ
pAkt (phospho-Akt)
  pAkt (phospho-Akt), a potential biomarker of PI3K signal transduction disruption: suppressed pAkt
